Entries after “also recorded” stand apart in the source; their conditions may differ.
Experiments:
microglia [1] = test: GFP intensity / morphology of microglia in CX3CR1 GFP/+ mice; type: in vivo, mouse; conditions: 2-PF treated CX3CR1 GFP/+ mice
Method: To analyze a morphological change in microglia activation, 9-week-old CX3CR1^GFP/+ mice were used. Two hours after an IP containing or not containing 2-PF was injected into two mice, brain sections were collected by cryosection. A 40-μm-thick brain tissue fragment was prepared by […], and a GFP signal of microglia was measured using a 40× magnification confocal microscope. A GFP-pixel signal of microglia was analyzed using Zeiss ZEN Software (Zeiss).

Olfr111 = test: Luciferase assay in Hana3A cells transfected with Olfr111; type: cell-based, mouse; conditions: Hana3A cells
Method: A Dual-Glo luciferase assay system (#E2940; Promega) was used for OR ligand screening. More specifically, Hana3A cells were seeded in white polystyrene 96-well plates (#353296; BD Biosciences) one day before transfection. pCRELuc (1 μg; #219076; Agilent Technologies), pRL-SV40 (1 μg; #E2231; Promega), RTP1S (1 μg), and OR (6 μg; or Mock) vectors were transfected for 24 hours in each plate. Analysis was performed using Lipofectamine 2000 (#11668-019; Thermo Fisher Scientific) according to the manufacturer's protocols. Transfected cells were stimulated at 37° C. for 4 hours with various concentrations of diluted odorants in a CD293 medium (#11913-019; Thermo Fisher Scientific). The activity of luciferase was normalized to that of Renilla luciferase. Luminescence was measured using a SpectraMax L microplate reader (Molecular Devices).

microglia [2] = test: Ex vivo phagocytosis of microglia in brain slices (time-lapse confocal imaging); type: cell-based, mouse; conditions: brain slices of CX3CR1 GFP/+ mice
Method: In this experiment, to examine the phagocytotic action of microglia, the brain of a 9-week-old male CX3CR1^GFP/+ mouse was sliced to a thickness of 150 μm using a vibratome (Leica VT1200), and stored in a ice-cooled artificial cerebrospinal fluid (aCSF: 120 mM NaCl, 25 mM NaHCO3, 1.25 mM NaH2PO4, 5 mM KCl, 1 mM CaCl2, 1 mM MgSO4, […], pH7.4). Afterwards, the sliced brain was incubated to remove cell debris. Oxygen-treated aCSF was pretreated in a perfusion chamber at 37° C. for 2 hours. Subsequently, before incubation, the sliced brain was incubated with 500 μl of aCSF containing 9.10×10^7 microspheres (360/407 […]; #17458; Polysciences), and covered with a customized nylon grid. Time lapse videos were recorded every minute for 92 minutes using a confocal microscope. The number of phagocytosing microglia was counted from the images.

primary microglia [3] = test: cAMP ELISA in primary microglia; type: cell-based, mouse; conditions: 2-PF 0, 100, 500 μM
Method: Primary microglia were seeded in 48-well plates (2×10^5 cells/well) and treated with 30 μM forskolin (#F3917, Sigma Aldrich) or 2-PF (10, 100, 500 μM) for 30 minutes. To confirm the effect of an inhibitor, 1 mM of S Q22536 (#17318-31-9; Calbiochem) was pretreated first for 30 minutes. The cells were lysed in 0.1 M of HCl with 1% Triton X 100 for 10 minutes, the lysate was centrifuged at 600×g for 2 minutes. The resulting supernatant was directly used for cAMP analysis with a cAMP ELISA kit (Enzo Life Science) according to the manufacturer's protocol. An optical density at 405 nm was measured using a VersaMax microplate reader (Molecular Devices).

primary microglia [4] = test: Western blotting of phosphorylated signaling proteins in primary microglia; type: cell-based, mouse; conditions: 0-30 min after treatment
Method: Cells and tissue were prepared using the T-PER® reagent (#78510; Thermo Fisher Scientific) containing protease inhibitors (#04-693-116-001; Roche Molecular Diagnostics) and DMSF (Sigma-Aldrich), and then lysed using a MagNA lyser (Roche Molecular Diagnostics). A total protein extract was quantified by the Bradford assay. The samples were dissolved in 7.5% SDS-PAGE or 4-20% gradient mini-PROTEIN TGX Precast Gels (#456-1064; Bio-Rad Laboratories), and then blotted on nitrocellulose membranes (#10600002; GE Healthcare). Afterward, the membranes were blocked for 1 hour in 5% non-fat dry milk and TBST, 0.1% TWEEN® 20 (#P9416; Sigma-Aldrich), and Tris-buffered saline, and then incubated with primary antibodies at 4° C. overnight. The antibodies were as follows: Olfr110 (36 kDa; 1:1,000; #ab177327; Abcam), anti-rhodopsin (39 kDa; 1:1,000; #MABN15; Millipore), CREB (43 kDa; 1:1,000; #9197; Cell Signaling Technology), phospho-CREB (43 kDa; 1:1,000; #9198; Cell Signaling Technology), ERK (44 kDa; 1:1,000; #sc094; Santa Cruz), phospho-ERK (42, 44 kDa; 1:1,000; #sc-7383; Santa Cruz), phospho-Akt (60 kDa; 1:500; sc-293125; Santa Cruz), phospho-JNK (46, 54 kDa; 1:500; sc-6254; Santa Cruz), phosphor-p38 (38 kDa; 1:1,000; sc-7973; Santa Cruz), and beta-Actin (45 kDa; 1:10,000; #4967; Cell Signaling Technology). In addition, as isotype-matched horseradish peroxidase-conjugated secondary antibodies, anti-rabbit IgG (#711-035-152; Jackson ImmunoResearch) diluted 1:100,000, and anti-mouse IgG (#715-035-150; Jackson ImmunoResearch) diluted 1:40,000 in TBST were used at room temperature for 2 hours. Immunoreactive protein bands were obtained using SuperSignal™ West Pico Chemiluminescent Substrate (#34080; Thermo Fisher Scientific).

Olfr110 F104W mutation = biological target: T1, Olfr110 F104W mutation (Mus musculus, UniProt A2RT31, F104W); test: Luciferase assay with site-directed Olfr110 mutants; type: cell-based; conditions: 2-PF treatment
T1 construct: Full-length odorant receptor genes from mouse and human genomic DNAs were amplified using appropriate primers; Lucy (N); Flag (N); Rho (N); expressed in transfected cells; host or cells: Hana3A cells
T1 sequence (A2RT31 1-317 F104W): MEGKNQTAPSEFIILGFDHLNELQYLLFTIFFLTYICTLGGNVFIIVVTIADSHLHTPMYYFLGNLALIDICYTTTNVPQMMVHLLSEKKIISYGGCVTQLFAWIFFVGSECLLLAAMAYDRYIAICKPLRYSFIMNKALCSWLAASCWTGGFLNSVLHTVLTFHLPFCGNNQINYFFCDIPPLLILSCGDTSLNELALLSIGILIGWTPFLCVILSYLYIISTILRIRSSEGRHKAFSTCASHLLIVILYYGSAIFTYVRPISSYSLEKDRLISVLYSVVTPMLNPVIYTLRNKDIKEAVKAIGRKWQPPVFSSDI
Description: Specific mutant vectors of the Olfr110 structure were generated using PfuUltra High-Fidelity DNA polymerase (#600380; Agilent Technologies). All mutant vectors (F102W; F104W; Y252F; Y259F; F102W/F104W; Y252F/Y259F; F102W/Y252F/Y259F; F104W/Y252F/Y259F; F102W/F104W/Y252F/Y259F) were sequenced in forward and reverse directions (Macrogen).

- luciferase activity of Olfr110 F104W mutant (Olfr110 F104W mutation): completely lost
Structure (SMILES): CCCCCc1ccco1 [2-PF, 2-pentylfuran]
- intensity of GFP expression of microglia (microglia [1]): highly increased
- reactivity with Olfr111 (relative luciferase activity) (Olfr111): selective ligands; also recorded: showed reactivity
- activity of phagocytosis of microglia ex vivo (microglia [2]): increased
- cAMP concentration (primary microglia [3]): increased by 2-PF treatment in a concentration dependent manner
- phosphorylation levels of ERK, p38, JNK and Akt (primary microglia [4]): increased from 2 minutes and stopped increasing at 20 minutes

Reference: patent US12265087B2, “Olfactory receptor as microglia marker and use thereof” (DAEGU GYEONGBUK INSTITUTE OF SCIENCE AND TECHNOLOGY, priority 2019, dated 2025)
